In US10668040B2, “Treatment of urea cycle disorders in neonates and infants” (Horizon Therapeutics, LLC, priority 2017, dated 2020):

What was measured:
Assay type in all cases: in vivo, human
pediatric UCD patients = experiment: Pooled ammonia analyses from short term studies
Protocol: Pooled ammonia analyses from short term studies were also conducted.

[1] = Pharmacokinetics of HPN-100 and NaPBA, study HPN-100-012; details: HPN-100-012 (N = 15)
Excerpt: The pharmacokinetics of the short term studies can be summarized as follows. Mean exposure levels of HPN-100 metabolites PBA, PAA, and PAGN after doses of HPN-100 and NaPBA with meals (TID) in pediatric (29 days to 17 years of age) UCD patients in HPN-100-005 and HPN-100-012 studies are summarized below. The mean exposure to PBA, the parent metabolite, and mean exposure to PAGN, the terminal metabolite, show no systematic variation across age groups, while PAA exposure tended to decrease with increasing age, a finding consistent with those from population PK modeling which indicate that the rate of clearance/metabolism of PAA varies directly with body size. While systemic metabolite exposure, assessed as peak plasma concentration (Cmax) or AUC, is generally similar for HPN-100 and NaPBA, the minimum concentration (Cmin-ss) was higher—and/or percent-fluctuation less—for plasma PAGN, a finding consistent with slower gastrointestinal absorption of PBA when administered orally as HPN-100.

UCD patients [2] = experiment: HPN-100-009 (Example 2): growth and development, BMI and BSA Z-scores; details: Age 2 Months to <2 Years
Protocol: Assessment of Growth and Development: Baseline and Change from Baseline in Body Mass Index (BMI) Z-Score and Body Surface Area (BSA) Z-Score Up to Month 9.
End point description. To assess any effect of study drug treatment on growth, Z-scores were calculated to express the deviation from a reference population for BMI and BSA. The BMI Z-scores are based on the World Health Organization's Child Growth Standards charts. The BSA Z-Scores are based on weight-for-length charts. Negative Z-scores indicate lower than typical for age and gender while positive scores indicate higher than typical for age and gender. […] End point timeframe: Baseline, Day 7, Month 2, Month 3, Month 4, Month 5, Month 6, Month 9.

UCD patients [3] = experiment: Example 3: BMI and BSA Z-scores up to Month 24
Protocol: Baseline and Change from Baseline in Body Mass Index (BMI) Z-Score Up to Month 24
(§1) To assess any effect of study drug treatment on growth, Z-scores were calculated to express the deviation from a reference population for BMI. The Z-scores are based on the World Health Organization's Child Growth Standards charts. Negative Z-scores indicate lower than typical for age and gender while positive scores indicate higher than typical for age and gender. BMI measurements were taken on month 1, month 2, month 3, month 4, month 5, month 6, month 9, month 12, month 15, month 18, and month 24.
Baseline and Change from Baseline in Body Surface Area (BSA) Z-Score Up to Month 24
as §1, with “BSA.” for “BMI.”, “weight-for-length” for “the World Health Organization's Child Growth Standards”

[4] = Age 2 months to <2 years, Month 1
[5] = Age 2 months to <2 years, Month 2
[6] = Age 2 months to <2 years, Month 3
[7] = Age 2 months to <2 years, Month 4
[8] = Age 2 months to <2 years, Month 5
[9] = Age 2 months to <2 years, Month 6
[10] = Age 2 months to <2 years, Month 9
[11] = Age 2 months to <2 years, Month 12
[12] = Age 2 months to <2 years, Month 15
[13] = Age 2 months to <2 years, Month 18
[14] = Age 2 months to <2 years, Month 24

O=C(CCCc1ccccc1)OCC(COC(=O)CCCc1ccccc1)OC(=O)CCCc1ccccc1 [RAVICTI, benzenebutanoic acid, 1′,1″-(1,2,3-propanetriyl) ester]
abnormal ammonia values (pediatric UCD patients): 15% | Plasma PAA % Fluctuation ([1]; mean (CV %)): 2141 (145.0) % | Plasma PAA AUC0-24 ([1]; mean (CV %)): 1096 (214.0) μg · h/mL | Plasma PAA CLss/F ([1]; mean (CV %)): 25538 (116.8) mL/min | Plasma PAA Cmax-ss ([1]; mean (CV %)): 84.7 (148.3) μg/mL | Plasma PAA Cmin-ss ([1]; mean (CV %)): 26.1 (360.8) μg/mL | Plasma PAGN % Fluctuation ([1]; mean (CV %)): 907 (116.7) % | Plasma PAGN AUC0-24 ([1]; mean (CV %)): 1131 (71.2) μg · h/mL | Plasma PAGN CLss/F ([1]; mean (CV %)): 10830 (85.6) mL/min | Plasma PAGN Cmax-ss ([1]; mean (CV %)): 85.5 (53.7) μg/mL | Plasma PAGN Cmin-ss ([1]; mean (CV %)): 19.9 (173.4) μg/mL | Plasma PBA % Fluctuation ([1]; mean (CV %)): 1781 (84.6) % | Plasma PBA AUC0-24 ([1]; mean (CV %)): 255 (54.5) μg · h/mL | Plasma PBA CLss/F ([1]; mean (CV %)): 22610 (48.6) mL/min | Plasma PBA Cmax-ss ([1]; mean (CV %)): 36.8 (59.0) μg/mL | Plasma PBA Cmin-ss ([1]; mean (CV %)): 0.750 (192.7) μg/mL | Plasma PAA Tmax-ss ([1]; median): 8.00 h | Plasma PAGN Tmax-ss ([1]; median): 7.92 h | Plasma PBA Tmax-ss ([1]; median): 8.00 h | BMI Z-Score baseline (UCD patients [2]): 0.795 | BMI Z-score, Change from Baseline at Day 7 (UCD patients [2]): -0.211 | BMI Z-score, Change from Baseline at Month 2 (UCD patients [2]): 0.0021 | BMI Z-score, Change from Baseline at Month 3 (UCD patients [2]): 0.213 | BMI Z-score, Change from Baseline at Month 4 (UCD patients [2]): 0.47 | BMI Z-score, Change from Baseline at Month 5 (UCD patients [2]): 0.164 | BMI Z-score, Change from Baseline at Month 6 (UCD patients [2]): 0.469 | BSA Z-Score baseline (UCD patients [2]): 0.686 | BSA Z-score, Change from Baseline at Day 7 (UCD patients [2]): -0.185 | BSA Z-score, Change from Baseline at Month 2 (UCD patients [2]): -0.0437 | BSA Z-score, Change from Baseline at Month 3 (UCD patients [2]): 0.119 | BSA Z-score, Change from Baseline at Month 4 (UCD patients [2]): 0.381 | BSA Z-score, Change from Baseline at Month 5 (UCD patients [2]): 0.198 | BSA Z-score, Change from Baseline at Month 6 (UCD patients [2]): 0.398 | BMI Z-Score baseline (UCD patients [3]; Age 0 to <2 Months): −0.0544 (±1.268); | BSA Z-Score baseline (UCD patients [3]; Age 0 to <2 Months): −0.1980 (±2.118); | BMI Z-Score change from baseline (UCD patients [3]; Age 0 to <2 months, Month 1): −0.2158 (±1.36); | BSA Z-Score change from baseline (UCD patients [3]; Age 0 to <2 months, Month 1): 0.2336 (±1.956); | BMI Z-Score change from baseline (UCD patients [3]; Age 0 to <2 months, Month 2): −0.2598 (±1.195); | BSA Z-Score change from baseline (UCD patients [3]; Age 0 to <2 months, Month 2): 0.2006 (±1.721); | BMI Z-Score change from baseline (UCD patients [3]; Age 0 to <2 months, Month 3): −0.1617 (±1.026); | BSA Z-Score change from baseline (UCD patients [3]; Age 0 to <2 months, Month 3): 0.2684 (±1.375); | BMI Z-Score change from baseline (UCD patients [3]; Age 0 to <2 months, Month 4): −0.0264 (±1.682); | BSA Z-Score change from baseline (UCD patients [3]; Age 0 to <2 months, Month 4): 0.2372 (±2.308); | BMI Z-Score change from baseline (UCD patients [3]; Age 0 to <2 months, Month 5): 0.0828 (±1.142); | BSA Z-Score change from baseline (UCD patients [3]; Age 0 to <2 months, Month 5): 0.1810 (±1.7); | BMI Z-Score change from baseline (UCD patients [3]; Age 0 to <2 months, Month 6): 0.0136 (±1.721); | BSA Z-Score change from baseline (UCD patients [3]; Age 0 to <2 months, Month 6): 0.2902 (±2.06); | BMI Z-Score change from baseline (UCD patients [3]; Age 0 to <2 months, Month 9): 0.4614 (±1.253); | BSA Z-Score change from baseline (UCD patients [3]; Age 0 to <2 months, Month 9): 0.1679 (±1.324); | BMI Z-Score change from baseline (UCD patients [3]; Age 0 to <2 months, Month 12): 0.6646 (±0.9533); | BSA Z-Score change from baseline (UCD patients [3]; Age 0 to <2 months, Month 12): 0.1308 (±0.5037); | BMI Z-Score change from baseline (UCD patients [3]; Age 0 to <2 months, Month 15): 0.6830 (±0.557); | BSA Z-Score change from baseline (UCD patients [3]; Age 0 to <2 months, Month 15): 0.1595 (±0.7583); | BMI Z-Score change from baseline (UCD patients [3]; Age 0 to <2 months, Month 18): 0.3308 (±0.2757); | BSA Z-Score change from baseline (UCD patients [3]; Age 0 to <2 months, Month 18): 0.1050 (±0.7352); | BMI Z-Score change from baseline (UCD patients [3]; Age 0 to <2 months, Month 24): 0.7743 (±0.6496); | BSA Z-Score change from baseline (UCD patients [3]; Age 0 to <2 months, Month 24): 0.7341 (±1.356); | BMI Z-Score baseline (UCD patients [3]; Age 2 Months to <2 Years): 0.8107 (±2.17); | BSA Z-Score baseline (UCD patients [3]; Age 2 Months to <2 Years): 0.7143 (±2.149); | BMI Z-Score change from baseline (UCD patients [3]; [4]): −0.2385 (±0.7783); | BSA Z-Score change from baseline (UCD patients [3]; [4]): −0.2105 (±0.7413); | BMI Z-Score change from baseline (UCD patients [3]; [5]): −0.0249 (±0.7486); | BSA Z-Score change from baseline (UCD patients [3]; [5]): −0.0704 (±0.7039); | BMI Z-Score change from baseline (UCD patients [3]; [6]): 0.1815 (±0.8606); | BSA Z-Score change from baseline (UCD patients [3]; [6]): 0.1065 (±0.7016); | BMI Z-Score change from baseline (UCD patients [3]; [7]): 0.4434 (±0.9485); | BSA Z-Score change from baseline (UCD patients [3]; [7]): 0.3365 (±0.7767); | BMI Z-Score change from baseline (UCD patients [3]; [8]): 0.1484 (±0.7629); | BSA Z-Score change from baseline (UCD patients [3]; [8]): 0.1043 (±0.5675); | BMI Z-Score change from baseline (UCD patients [3]; [9]): 0.2497 (±0.8092); | BSA Z-Score change from baseline (UCD patients [3]; [9]): 0.1842 (±0.622); | BMI Z-Score change from baseline (UCD patients [3]; [10]): 0.6407 (±0.9869); | BSA Z-Score change from baseline (UCD patients [3]; [10]): 0.4875 (±0.8614); | BMI Z-Score change from baseline (UCD patients [3]; [11]): 0.4164 (±0.8067); | BSA Z-Score change from baseline (UCD patients [3]; [11]): 0.2944 (±0.7513); | BMI Z-Score change from baseline (UCD patients [3]; [12]): −0.2997 (±0.1696); | BSA Z-Score change from baseline (UCD patients [3]; [12]): −0.3661 (±0.00932); | BMI Z-Score change from baseline (UCD patients [3]; [13]): −0.2038 (±00000); | BSA Z-Score change from baseline (UCD patients [3]; [13]): −0.2214 (±00000); | BMI Z-Score change from baseline (UCD patients [3]; [14]): 0.5581 (±1.24); | BSA Z-Score change from baseline (UCD patients [3]; [14]): 0.4310 (±1.131);
